Assay results taken from US20250127719A1, “ANISAMIDE-CONTAINING LIPIDS AND COMPOSITIONS AND METHODS OF USE THEREOF” (The Trustees Of The University Of Pennsylvania, priority 2021, published 2025).

How the values were obtained:
[1] = siRNA encapsulation efficiency, RiboGreen RNA assay; format: physicochemical; conditions: weight ratio of AA-T3A-C12:siRNA 10:1
Experimental: (§1) The hydrodynamic diameter, polydispersity index (PDI), and zeta potential of LNPs were measured using a Zetasizer Nano ZS90 (Malvern Instruments, Malvern, UK). The morphology of LNPs was characterized by transmission electron microscopy (JEOL 1010, Tokyo, Japan). The siRNA-LNP complex was analyzed by agarose gel electrophoresis. siRNA encapsulation efficiency was determined using a modified Quant-iT RiboGreen RNA assay (Invitrogen) as previously described. The pKa of LNP was determined by 6-(p-toluidinyl)naphthalene-2-sulfonic acid (TNS) assay as previously described.

[2] = system: activated 3T3-GFP fibroblasts; assay: Second-round screening: dependency on sigma receptor-mediated transfection (haloperidol pre-treatment); format: cell-based, murine; conditions: 30 μM haloperidol 2 h, then 50 nM siGFP LNP 48 h
Experimental: The top-performing LNPs were subjected to a second round of screening by evaluating their dependency on sigma receptor-mediated transfection. Activated 3T3-GFP cells were treated with or without haloperidol (30 μM) for 2 h before various LNPs loaded with siGFP (50 nM) were used to treat these cells for another 48 h. The GFP signal in each well was obtained as described above.

[3] = Gel retardation assay (agarose gel electrophoresis); format: physicochemical; conditions: weight ratio of AA-T3A-C12:siRNA above 5:1; 500 ng siRNA per lane
Experimental: FIGS. 11A-11B depict optimization of the weight ratio of AA-T3A-C12 to siRNA. FIG. 11A: gel retardation assay. LNPs with different weight ratios of AA-T3A-C12:siRNA were analyzed by 1% agarose gel electrophoresis. 500 ng siRNA was loaded into each lane. […] FIG. 11B: RiboGreen RNA assay. The siRNA encapsulation efficiency reached a plateau of ˜90% when the weight ratio of AA-T3A-C12:siRNA was 10:1. Data are presented as mean±SD (n=3).
as §1

[4] = system: activated 3T3-GFP fibroblasts; assay: High-throughput screening of LNPs: GFP knockdown, plate reader; format: cell-based, murine; conditions: 50 nM siGFP, 48 h post-treatment
Experimental: High-throughput screening of LNPs was performed by evaluating GFP knockdown efficiency in 96-well plates using a plate reader assay. 3T3-GFP cells were re-suspended in DMEM containing 10 ng/ml of TGF-β, and seeded into a 96-well plate at a density of 5,000 cells per well. After 24 h, activated cells were treated with various LNPs loaded with siGFP (50 nM). At 48 h post-treatment, the GFP signal in each well was obtained using an Infinite M Plex plate reader (Tecan, Morrisville, NC, USA) with an excitation of 488 nm and an emission of 520 nm. Cell viability was measured using a CellTiter-Glo Luminescent Cell Viability Assay according to the manufacturer's instruction (G7572, Promega).

| SMILES | siRNA encapsulation efficiency plateau [1] | change of GFP silencing activity after haloperidol (HP) treatment [2] | free siRNA in gel retardation assay [3] | GFP knockdown [4] |
| --- | --- | --- | --- | --- |
| CCCCCCCCCCC(O)CN(CCCN(CCCNC(=O)c1ccc(OC)cc1)CCCN(CC(O)CCCCCCCCCC)CC(O)CCCCCCCCCC)CC(O)CCCCCCCCCC (stereo not shown) [AA-T3A-C12, N-(3-(bis(3-(bis(2-hydroxydodecyl)amino)propyl)amino)propyl)-4-methoxybenzamide] | ~90% | the most significant loss of activity | Little to no free siRNA was observed |  |
| CCCCCCCCCCC(O)CN(CCN(CCNC(=O)c1ccc(OC)cc1)CCN(CC(O)CCCCCCCCCC)CC(O)CCCCCCCCCC)CC(O)CCCCCCCCCC (stereo not shown) [AA-110-C12] |  |  |  | ~70% |
